From paper PMC12033163, “Tumor-specific biochemical nanoconversion of self-assembled peptide-conjugated paclitaxel-docetaxel-based nanoparticles” (Nano Convergence, 2025)
pIC50: −log10 of the molar value. Peptide text beside a SMILES is read from it.

How the values were obtained:
Hep G2 cells = assay: In vitro cytotoxicity assay (EZ-Cytox); format: cell-based; details: Hep G2, 48 h; for cell viability at 500 µM / cell viability at 500 µM in 3% DMSO solution: relative to untreated group; for cell viability at 500 µM: n = 5-6, mean ± S.D.; for cell viability at 500 µM in 3% DMSO solution: n = 6
Experimental: The cytotoxicity of (Ac)FRRF, de-Boc-DTX, (Ac)FRRF-DTX NPs, PTXm and PTX were evaluated using the EZ-Cytox assay on Hep G2 cell. Hep G2 was cultured in a 96-well plate at concentrations of 5.0 × 10^3 cells/well and 1.0 × 10^4 cells/well, respectively, under conditions of 37℃ and 5% CO2 for 1 h. Subsequently, cells were cultured for 48 h with concentrations ranging from 0.1 to 500 µM of each drug. Cell viability (n = 5 − 6) was measured at 450 and 600 nm absorbance using the EZ-Cytox cell viability assay kit (Daeil Lab Service, Republic of Korea) and a microplate reader (SPECTROstar Nano spectrophotometer, BMG Labtech, Germany). Cell viability was calculated by comparing the absorbance values of the measured samples with those of the control group. Additionally, to more accurately confirm the cytotoxicity of DTX and PTX with low solubility in aqueous media for Hep G2 cell, both of drug were dissolved in a 3% DMSO solution and cultured for 48 h at concentrations ranging from 0.1 to 500 µM. Cell viability was determined using the same method.

[1] = Morphology / nanoparticle formation by TEM and SEM; format: physicochemical
[2] = test system: microtubules in Hep G2 cells; assay: In vitro microtubule staining (BioTracker 488 Green Microtubule Cytoskeleton Dye); format: cell-based; details: Hep G2, 100 µM, 24 h, versus well-organized control
Experimental: To assess the cell death induced by PTX, PTXm, and (Ac)FRRF-DTX NPs in Hep G2 cells, an evaluation was conducted using the nucleic green reagent, and the results were visualized through imaging. Hep G2 cells cultured in high-glucose DMEM medium, maintain in a sample chamber with appropriate humidity, and kept at 37℃ with 5% CO2. The cells were cultured in 35 mm fluorescent cell culture dishes (SPL Life Science, Republic of Korea) at a concentration of 4 × 10^4 for 3 h. Subsequently, DTX, PTX, and (Ac)FRRF-DTX NPs were all treated at a concentration of 100 µM (in DMSO 2%) for 24 h. After sample treatment, cells were washed five times with DPBS solution, and in a light-protected environment, the medium was replaced with a mixture of microtubule reagent (Bio Tracker™ 488 Green Microtubule Cytoskeleton Dye, Sigma-Aldrich, MO, USA) in fresh medium at RT for 30 min. Following this, the medium was replaced with new DMEM containing 10% FBS, and images were captured using ECLIPSE Ti2 Series (Nikon, Japan) with a FITC filter and quantified using ImageJ (U.S. National Institutes of Health).

Solubility assessment = details: for appearance of solution in 3% DMSO: 0.3 mg/mL in water (DW) with 3% DMSO; for appearance of solution in 3% DMSO / appearance of solution in 10% DMSO: visual images; for appearance of solution in 10% DMSO: 0.3 mg/mL in water with 10% DMSO
Experimental: The images aimed to observe how well these compounds dissolved in the solution. Additionally, an experiment was carried out to precisely determine the aqueous solubility values of (Ac)FRRF-DTX nanoparticles. […] […] Moreover, complementary experiments were performed to obtain accurate quantitative solubility values for (Ac)FRRF-DTX NPs.

[3] = mouse, in vivo
[4] = In vivo blood toxicity assessment (hematology); details: normal mice, i.v.; PTX 1.5 mg/kg, NPs 3 mg/kg; blood after 7 days, n = 5
Experimental: Hematological analysis of red blood cell (RBC) and white blood cell (WBC) parameters in mice treated with (Ac)FRRF-DTX was performed through clinical pathological examinations. Normal saline (control group), de-Boc-DTX (1.5 mg/kg), PTX (1.5 mg/kg), and (Ac)FRRF-DTX NPs (3 mg/kg) were dissolved in 200 µL of normal saline and administered daily via tail vein. After 7 days, blood was drawn from the mice’s heart and collected in tubes containing EDTA to prevent coagulation. Subsequently, whole blood samples were stored for analysis. Level of RBC-related parameters (RBC, HGB, HCT, MCV, MHC, MCHC) and WBC-related parameters (WBC, PLT, NEU, LYM, MONO, EOS) were measured using a hematology analyzer (Sysmex XN series, Sysmex, Japan) (n = 5).

Hep G2 tumors = assay: In vivo antitumor test (Hep G2 xenograft); design: species or system BALB/c nude mice; details: for average tumor weight after 17 days / tumor size after 17 days: i.v. at 3 day intervals, PTX, de-Boc-DTX 5 mg/kg, NPs 10 mg/kg; for average tumor weight after 17 days: control 595.28 ± 282.98; for tumor size after 17 days: control 2161.12 ± 946.71; for TUNEL staining fluorescence intensity of tumor tissue: tumors after 17 days, ImageJ, relative to control group, n = 3
Experimental: All animal experiments were conducted in accordance with the standard regulations of the Konkuk University Animal Experimentation Ethics Committee (Ref: no. KU220748-1). Hep G2 cells at a concentration of 1.0 × 10^7 cells/100 µL were subcutaneously inoculated into the dorsal region at 6-week-old male BALB/c nude mice (Orient Bio, Seongnam, Republic of Korea). After […], when the tumor volume reached approximately 50 − 100 mm^3 (calculated as the maximum diameter × minimum diameter^2 × 0.52), the mice were divided into four groups. Mice with tumors were intravenously administered saline, de-Boc-DTX (5 mg/kg), PTX (5 mg/kg), or (Ac)FRRF-DTX NPs (10 mg/kg; based on 5 mg/kg of de-Boc-DTX) at 3 days intervals for a total of 17 days. The body weight and tumor volume of the treated mice were measured every other day using a digital caliper (ASIMETO, Mooresville, NC, USA). After 17 days of treatment, tumors were fixed with diluted 10% neutral pH formalin (HuBen Tech, Republic of Korea). Tumor tissues were stained with TUNEL, Ki-67, and H&E. Sections of tumor tissues stained with Ki-67 and H&E were observed using the OS-33DPM multimedia video microscope (OSUN HITECH, Republic of Korea). Additionally, tumor tissues stained with TUNEL were sliced for histological observation using an ECLIPSE Ti2 inverted microscope (Nikon, Japan), and FITC fluorescence intensity was quantified using ImageJ (U.S. National Institutes of Health) (n = 3).

[5] = molecular target: T1, Cathepsin B from bovine spleen (Bos taurus, UniProt P07688); assay: Cathepsin B cleavage assay (RP-HPLC, LC-MS); format: in vitro ADME; details: 50 µM, 25 mM MES buffer, 37℃, RP-HPLC 245 nm
T1 construct: Cathepsin B from bovine spleen; purchased Sigma-Aldrich; host or cells: bovine spleen (tissue-derived enzyme)
Source text: Antibiotic antimycotic solution (100X), Bio TrackerTM 488 Green Microtubule Cytoskeleton Dye, Cathepsin B from bovine spleen, Dimethyl sulfoxide (DMSO), Dulbecco’s modified Eagle’s medium (DMEM), 1-ethyl-3-(3-dimethylaminopropyl) carbodiimide (EDCI), dichloromethane (DCM), ether, phosphate-buffered saline (PBS), rhodamine B isothiocyanate (RITC), 2-(4-amidi-nophenyl)-6-indolecarbamidine dihydrochloride (DAPI), Tetramethylsilane (TMS), Dimethyl sulfoxide-d6 (DMSO-d6) were purchased from Sigma-Aldrich (St. Louis, MO, USA). Paraformaldehyde solution 4% in PBS (PFA), PierceTM BCA Protein Assay Kit were obtained from Thermo Fisher Scientific (Waltham, MA, USA). EZ-Cytox kit was purchased from DoGenBio (Seoul, Republic of Korea). Fetal bovine serum (FBS), 0.5% Trypsin-EDTA (10X) were obtained from Gibico (Waltham, MA, USA). Neutral buffered formalin (10%) was purchased from HuBenTech (Damyang, Republic of Korea).
The cathepsin B-specific cleavage of (Ac)FRRF-DTX was analyzed using reverse-phase high-performance liquid chromatography (RP-HPLC), and the molecular weight of PTXm was determined by liquid chromatography-mass spectrometry (LC-MS). […] The cleavage profile of (Ac)FRRF-DTX NPs was analyzed at 245 nm using reversed-phase high-performance liquid chromatography (RP-HPLC) under solvent gradient conditions (from 90:10 H2O/acetonitrile to 10:90 H2O/acetonitrile over 40 min). […]

| SMILES | cell viability at 500 µM (Hep G2 cells; without DMSO) | morphology / nanoparticle formation [1] | appearance of microtubule structures [2] | cell viability at 500 µM in 3% DMSO solution (Hep G2 cells) | appearance of solution in 3% DMSO (Solubility assessment) | appearance of solution in 10% DMSO (Solubility assessment) | histological toxicity in major organs (heart, liver, spleen, lungs, kidney) [3] | average tumor weight after 17 days (Hep G2 tumors; n = 5-7) | tumor size after 17 days (Hep G2 tumors; n = 5-7) | TUNEL staining fluorescence intensity of tumor tissue (Hep G2 tumors) | also measured |
| --- | --- | --- | --- | --- | --- | --- | --- | --- | --- | --- | --- |
| CC(=O)N[C@@H](Cc1ccccc1)C(=O)N[C@@H](CCCNC(=N)N)C(=O)N[C@@H](CCCNC(=N)N)C(=O)N[C@@H](Cc1ccccc1)C(=O)O [(Ac)FRRF, acetylated Phe-Arg-Arg-Phe peptide] (Ac-FRRF-OH) | 84.1 ± 6.6% | absence of nanoparticle formation |  |  |  |  |  |  |  |  |  |
| CC(=O)O[C@@]12CO[C@@H]1C[C@H](O)[C@@]1(C)C(=O)[C@H](O)C3=C(C)[C@@H](OC(=O)[C@H](O)[C@@H](NC(=O)[C@@H](N)Cc4ccccc4)c4ccccc4)C[C@@](O)([C@@H](OC(=O)c4ccccc4)[C@H]21)C3(C)C [PTXm] | 40.9 ± 10.9% |  | indistinct |  |  |  |  |  |  |  | pIC50 (Hep G2 cells; tested 0.1-500 µM, without DMSO): 3.67 |
| CC(=O)O[C@@]12CO[C@@H]1C[C@H](O)[C@@]1(C)C(=O)[C@H](O)C3=C(C)[C@@H](OC(=O)[C@H](O)[C@@H](NC(=O)OC(C)(C)C)c4ccccc4)C[C@@](O)([C@@H](OC(=O)c4ccccc4)[C@H]21)C3(C)C [DTX, Docetaxel] | 57.9 ± 8.9% |  |  | 24.9 ± 4.6% | opaque or precipitated | clear |  |  |  |  |  |
| CC(=O)O[C@H]1C(=O)[C@@]2(C)[C@H]([C@H](OC(=O)c3ccccc3)[C@]3(O)C[C@H](OC(=O)[C@H](O)[C@@H](NC(=O)c4ccccc4)c4ccccc4)C(C)=C1C3(C)C)[C@]1(OC(C)=O)CO[C@@H]1C[C@@H]2O [PTX, paclitaxel] | 55.5 ± 4.9% |  | indistinct | 27.4 ± 4.5% | opaque or precipitated | clear | no significant toxicity | 293.97 ± 164.22 mg | 1029.79 ± 752.19 mm^3 | 183.71 ± 2.32% | white blood cell parameters (NEU, LYM, EOS concentrations) [4]: alterations in NEU, LYM and EOS concentrations; body weight change (Hep G2 tumors; 17 days treatment, n = 5-7): no significant changes in body weight |
| CC(=O)O[C@@]12CO[C@@H]1C[C@H](O)[C@@]1(C)C(=O)[C@H](O)C3=C(C)[C@@H](OC(=O)[C@H](O)[C@@H](N)c4ccccc4)C[C@@](O)([C@@H](OC(=O)c4ccccc4)[C@H]21)C3(C)C [de-Boc-DTX] | 75.3 ± 5.4% | absence of nanoparticle formation |  |  |  |  | no significant toxicity | 265.94 ± 298.69 mg | 1262.19 ± 1209.27 mm^3 | 196.50 ± 4.25% |  |
| CC(=O)N[C@@H](Cc1ccccc1)C(=O)N[C@@H](CCCNC(=N)N)C(=O)N[C@@H](CCCNC(=N)N)C(=O)N[C@@H](Cc1ccccc1)C(=O)N[C@@H](c1ccccc1)[C@@H](O)C(=O)O[C@H]1C[C@@]2(O)[C@@H](OC(=O)c3ccccc3)[C@@H]3[C@]4(OC(C)=O)CO[C@@H]4C[C@H](O)[C@@]3(C)C(=O)[C@H](O)C(=C1C)C2(C)C [(Ac)FRRF-DTX, Acetylated Phenylalanine-Arginine-Arginine-Phenylalanine Docetaxel] |  |  |  |  |  |  |  |  |  |  | solubility in water (Solubility assessment; water without DMSO): 1.3 mg/20 µL; change of (Ac)FRRF-DTX in the absence of cathepsin B ([5]; 0-72 h, no cathepsin B): remained unchanged; nanoconversion of (Ac)FRRF-DTX to PTXm at 48 h ([5]; cathepsin B 50 µg/mL, 48 h): complete nanoconversion |
